Entries after “also recorded” stand apart in the source; their conditions may differ. Read-outs that look alike come from different tables or passages of the source.

One assay deals with T1, PLA2G4C (Homo sapiens, UniProt Q9UP65).
T1 construct: 6xHis (N); made in house; host or cells: E. coli C43(DE3)
T1 sequence (Q9UP65 1-541): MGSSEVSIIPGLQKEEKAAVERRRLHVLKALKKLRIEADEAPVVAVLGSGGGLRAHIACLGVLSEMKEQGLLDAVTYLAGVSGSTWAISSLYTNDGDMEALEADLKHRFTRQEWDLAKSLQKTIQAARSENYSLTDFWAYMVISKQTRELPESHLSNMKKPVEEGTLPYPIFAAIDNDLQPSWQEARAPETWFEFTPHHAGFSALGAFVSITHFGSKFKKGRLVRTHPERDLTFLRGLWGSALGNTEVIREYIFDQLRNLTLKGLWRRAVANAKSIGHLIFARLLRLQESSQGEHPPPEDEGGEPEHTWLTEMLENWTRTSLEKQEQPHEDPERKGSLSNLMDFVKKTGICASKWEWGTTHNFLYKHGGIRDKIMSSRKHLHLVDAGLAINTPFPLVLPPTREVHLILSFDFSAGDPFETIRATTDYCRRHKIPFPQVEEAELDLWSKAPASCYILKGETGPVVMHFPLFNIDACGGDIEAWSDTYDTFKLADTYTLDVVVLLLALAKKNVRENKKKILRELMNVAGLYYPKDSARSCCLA
The assay can be described thus: Human phospholipase assay, thio-BGPC substrate. Conditions: 10 µM, S4 Fig. Type of assay: biochemical. As to the method: Recombinant human PLA2G7 and PLA2G4C activities were measured in 96well, -well, UVtransparent microplates (Corning) in a final volume of 50 µL per well. Reactions were carried out in 20 mM […] TrisHCl-HCl (pH 8.2), 100 mM NaCl, and 0.01% Tween 20, with a 1% (v/v) final DMSO concentration. For PLA2G7, substrate cleavage was monitored using 0.6 mM 2-thio-PAF (Cambridge Bioscience Ltd), and for PLA2G4C, 0.6 mM arachidonoyl thio-bis-glycerophosphocholine (thioBGC-BGC; Cambridge Bioscience Ltd) was employed. In both assays, 1 mM DTNB (5,5′-dithiobis-(2nitrobenzoic acid), -nitrobenzoic acid), SigmaAldrich-Aldrich) served as the chromogenic reporter. Enzyme (500 nM final) was preequilibrated with buffer at 25 °C for 5 min before initiating-equilibrated with buffer at 25 °C for 5 min before initiating the reaction by substrate addition. Absorbance at 414 nm was recorded every minute for 1 h on a Hidex plate reader.
(B) ExoU activity was assessed using arachidonoyl thio-phosphatidylcholine (thio-PC) in the presence of 10 µM of the indicated compound. […] (TIF)

For assay [1], the system named is P. aeruginosa PA103. The class given is in vivo, Galleria mellonella.
Assay [2] deals with T2, ExoU (Pseudomonas aeruginosa, UniProt O34208). The assay can be described thus: BS3 cross-linking and SDS-PAGE of ExoU oligomerisation. The conditions noted are these: 10 µM inhibitor. As to the method:
Four reaction mixtures (50 µL each) were prepared at room temperature: ExoU alone; ExoU with 5 µM PIP2; ExoU with 10 µM inhibitor; and ExoU with both 5 µM PIP2 and 10 µM inhibitor for 30 minutes at 25 °C. […] Reactions were quenched by addition of Tris HCl pH 7.4 to 50 mM and a further 15 min incubation at room temperature. […] Membranes were blocked in TBST containing 5% (w/v) non-fat milk for 1 h, then incubated overnight at 4 °C with mouse anti-His monoclonal antibody (Bio Rad; 1:2,000). After washing in TBST, membranes were incubated with HRP-conjugated goat anti-mouse IgG for 1 h at room temperature. Signal was detected by chemiluminescence with X ray film exposure, and band patterns were analysed to determine the distribution of monomeric and oligomeric ExoU species under each condition.

Assay [3] has as its system P. aeruginosa PA103. More on the design: species or system porcine. The conditions noted are these: 48 hours.
In assay [4] the test system is T3SS gene expression in P. aeruginosa PA103 and PAO1. Put plainly: Quantitative RT-PCR of T3SS gene expression. Type of assay: cell-based, Pseudomonas aeruginosa. The conditions noted are these: Bis 10 µM, Zp 2.5 µM, Pol 1 µM in LB.
In assay [5] the test system is HCE-T cells infected with exoU⁺ clinical P. aeruginosa keratitis isolates. The assay can be described thus: CellDiscoverer 7 high-content screen, exoU+ isolates. The class given is cell-based, human. Conditions: 4.5 h post-infection; Bis 10 µM, Zp 2.5 µM, Pol 1 µM; DMSO ~43%.
The next assay concerns EGFP-tagged ExoU (S142A). Put plainly: EGFP-ExoU (S142A) abundance and lysosome colocalisation in transfected HEK293T cells.
Assay [6] addresses T2, ExoU. The assay can be described thus: nanoDSF thermal stability of ExoU. The class given is binding. Conditions: 10 µM compound. As to the method:
Thermal stability of recombinant His₆-ExoU was assessed using a Prometheus NT.48 instrument (NanoTemper Technologies, Cambridge, UK) without extrinsic dyes, as these were not compatible with the use of PIP2. ExoU was diluted to 5 µM in 20 mM TrisHCl-HCl (pH 8.2), 100 mM NaCl, and 10% (v/v) glycerol. To evaluate ligand effects, four samples were prepared: ExoU alone, ExoU with 5 µM PIP2, ExoU with 10 µM inhibitor, and ExoU with both 5 µM PIP2 and 10 µM indicated inhibitor, each maintaining 1% (v/v) DMSO. Ten microliters of each mixture were loaded into highsensitivity-sensitivity nanoDSF glass capillaries and subjected to a thermal ramp from 25 °C to 95 °C at 1 °C/min. Intrinsic tryptophan fluorescence emission at 330 nm and 350 nm was recorded continuously, and the ratio F₃₅₀/F₃₃₀ was plotted against temperature. Melting temperatures (Tₘ) were determined from the inflection point of the first derivative of the fluorescence ratio using the manufacturer’s analysis software. All conditions were measured in triplicate. Changes in melting temperature (Δ Tₘ) compared to DMSO, or DMSO PIP2 controls were plotted using GraphPad.
Supplementary file ppat.1014474.s008.tif: S7 Fig Nano differential scanning fluorimetry (nanoDSF) analysis of ExoU thermal stability in the presence of compounds. Raw melt curves of recombinant ExoU are shown in the absence (left) and presence (right) of PIP2 (5 µM) from three independent (A-C) experiments. Compounds were tested at 10 µM. Intrinsic tryptophan fluorescence emission was continuously monitored at 330 nm and 350 nm as the temperature increased, and the fluorescence ratio (F₃₅₀/F₃₃₀) was plotted against temperature. Melting temperatures (Tₘ) were calculated from the average inflection point of the first derivative of the fluorescence ratio using the manufacturer’s analysis software. (TIF)
On the technique in general: DSF heats the sample and reads unfolding from a dye or from intrinsic fluorescence.

Assay [7] concerns the target T2, ExoU. Put plainly: ExoU in vitro phospholipase assay (real-time, dose-response). Type of assay: biochemical.
Another assay concerns the target T3, human PLA2G7 (Homo sapiens, UniProt Q13093).
T3 construct: 6xHis (N); made in house; host or cells: E. coli C43(DE3)
T3 sequence (Q13093 22-441): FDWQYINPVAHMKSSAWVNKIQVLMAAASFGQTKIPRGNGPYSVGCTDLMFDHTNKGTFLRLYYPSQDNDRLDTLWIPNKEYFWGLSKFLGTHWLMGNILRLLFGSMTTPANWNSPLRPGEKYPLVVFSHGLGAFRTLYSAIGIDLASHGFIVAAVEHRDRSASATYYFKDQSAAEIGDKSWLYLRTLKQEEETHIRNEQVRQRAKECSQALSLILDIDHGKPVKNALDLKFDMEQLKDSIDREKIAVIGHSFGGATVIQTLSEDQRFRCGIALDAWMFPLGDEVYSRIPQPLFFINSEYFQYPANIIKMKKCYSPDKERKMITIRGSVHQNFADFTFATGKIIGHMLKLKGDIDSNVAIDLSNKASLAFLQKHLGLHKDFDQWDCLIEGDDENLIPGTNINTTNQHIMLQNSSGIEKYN
The assay can be described thus: Human phospholipase assay, 2-thio-PAF substrate. The class given is biochemical. The conditions noted are these: 10 µM, S4 Fig.

The IC50 is the concentration at which inhibition is half-maximal. As to `O=C([O-])CC(O)(CC(=O)[O-])C(=O)[O-].O=C([O-])CC(O)(CC(=O)[O-])C(=O)[O-].[Bi+3].[K+].[K+].[K+]` [Bis, bismuth subcitrate], the “Inhibition of PLA2G4C” value on PLA2G4C is listed as “no inhibition”. For the same compound, the “Clinical score: mean±SD (health score 0-9)” value in the assay with P. aeruginosa PA103 [1] (PA103 1 × 10⁵ CFU, Bis 0.1 mg/g, Zp 0.01 mg/g, Pol 0.004 mg/g, 40 h) came to 4.17 ± 3.89. The Median survival in the assay on P. aeruginosa PA103 [1] (PA103-infected larvae, PA103 alone 16) came to 16 h. Besides, in the assay on P. aeruginosa PA103 [1] (in a subset of larvae), the “Delay of disease progression” value is “approximately 8 h”. The “Migration of BS3 cross-linked ExoU on SDS-PAGE” value is “single discrete high‐molecular‐weight band” at ExoU [2] (with PIP2) and “did not alter this profile” on ExoU [2] (without PIP2). Moreover, the “Histology (H&E) of infected corneas” value in the assay on P. aeruginosa PA103 [3] is “partial epithelial preservation and less stromal damage”. For the same compound, the Corneal opacity result in the assay with P. aeruginosa PA103 [3] (Bis 5 µM, Zp 2.5 µM, Pol 1 µM topical) is “performing slightly better than Zp”. In addition, the “Expression of exsA, pcrV, exoU in PA103, or exsA, pcrV, exoS in PAO1” value in assay [4] is “no significant changes”. Besides, the “Mean live-cell area relative to non-infected controls” value in assay [5] came out at 55.8%. For the same compound, in the assay with EGFP-tagged ExoU (S142A) (5 µM, 16 h), the “Level of EGFP-tagged ExoU (S142A) by Western blot” value is recorded as “substantially reduced”. Also, in the assay on EGFP-tagged ExoU (S142A) (16 h), the “EGFP-ExoU (S142A) fluorescence and localisation (confocal)” value was “marked reduction; also recorded: redistributed into punctate structures that co-localised with RFP-LAMP1”. Besides, the “Pearson's correlation coefficient r, ExoU-lysosome (RFP-LAMP1) colocalisation” value in the assay with EGFP-tagged ExoU (S142A) (16 h compound treatment, DMSO r = 0.05) is given as 0.49. Moreover, the “Decrease of ExoU Tm” value at ExoU [6] (absence of PIP2) was “no measurable effect”; on ExoU [6] (with 5 µM PIP2), ~ 2 °C. Also, the IC50 was 12.8 ± 1 µM on ExoU [7] (Fig 1B dose-response, PIP2 and ubiquitin present, read-out: IC50 for ExoU inhibition in vitro); 9.9 µM at ExoU [7] (Fig 2C dose-response phospholipase assays, read-out: IC50 of bismuth-based ExoU inhibitors and subcitrate alone); 13.3 ± 2.9 µM at ExoU [7] (Fig 3C, three-parameter fit, read-out: IC50 for ExoU inhibition, individual inhibitors or equimolar combinations). Also, on human PLA2G7, the “Inhibition of PLA2G7 enzymatic activity” value is recorded as “neither Bis, Pol, nor Zp inhibited enzymatic activity”.

Values taken from publication PMC13450841 (PLOS Pathogens, 2026).
